# Where a name gives a salt, the structure may show the parent alone.
# Legend:
# [1] = test system: Carragenine induced edema; assay: Activity on carragenine induced edema (Table 9); format: in vivo
# From the text: |Activity on carragenine induced edema.
# [2] = in vivo; settings: po, rat, p.o., read-out: DL50 (the source's name)
# [3] = test system: ulcerogenic effect; assay: Ulcerogenic effect; format: in vivo; settings: dose 50 mg
# [4] = test system: Carragenine induced edema; assay: Carragenine induced edema, first test (Table 2); format: in vivo
# From the text: |ANTI-INFLAMMATORY ACTIVITY. |Carragenine induced edema, first test.
# [5] = test system: SH Groups in serum; assay: SH groups in serum (Table 8); format: in vivo; settings: arthritis checks 70, 77
# [6] = test system: Carragenine induced edema; assay: Anti-inflammatory activity on carragenine induced edema (Table 11); format: in vivo; settings: for % inhibition: 50 mg/Kg p.o.
# [7] = test system: Joint's diameter; assay: Joint's diameter in arthritis (Table 7); format: in vivo; set-up: unit not given here
# [8] = test system: Freund's adjuvant induced arthritis; assay: Freund's adjuvant induced arthritis, edema inhibition
# [9] = test system: erytrocytes sedimetation rate (ESR); assay: Erytrocytes sedimetation rate (ESR) (Table 8); format: in vivo; set-up: unit not given here; settings: arthritis checks 41, 56
# [10] = test system: Kaolin edema; assay: Edema induced by different substances: kaolin (Table 3); format: in vivo
# From the text: (§1) |Edema induced by different substances.
# [11] = test system: Serotonin edema; assay: Edema induced by different substances: serotonin (Table 3); format: in vivo
# From the text: as §1
# [12] = test system: capillary permeability (Histamine); assay: Effect on the capillary permeability, histamine; format: in vivo; settings: 200 mg/Kg p.o., checks 21.33, 200 mg/kg
# From the text: (§2) |Effect on the capillary permeability
# [13] = test system: capillary permeability (Dextran); assay: Effect on the capillary permeability, dextran; format: in vivo; settings: 200 mg/Kg p.o., checks 14.83, 200 mg/kg
# From the text: as §2
# [14] = test system: Carragenine edema; assay: Edema induced by different substances: carragenine (Table 3); format: in vivo
# From the text: as §1
# [15] = test system: capillary permeability (Serotonin); settings: 200 mg/Kg p.o., checks 18.16
# [16] = test system: Cotton-pellets induced granuloma; assay: Cotton-pellets induced granuloma; format: in vivo; settings: 200 mg/Kg p.o.
# From the text: | Cotton-pellets induced granuloma.
# [17] = test system: Dextrose edema; assay: Edema induced by different substances: dextrose (Table 3); format: in vivo
# From the text: as §1
# [18] = test system: Yeast edema; assay: Edema induced by different substances: yeast (Table 3); format: in vivo
# From the text: |Edema induced by different substances. | % edema inhibition
smiles,measurement,setting,value
"CC=CCC(C(=O)O)c1ccc(-c2ccc(Cl)cc2)cc1 (racemic) [SCR 158, 2-[4-biphenylyl-(4' chloro)]4-hexenoic acid]",Inhibition %,[1]; 56 mg/Kg p.o.,0%
same,Inhibition %,[1]; 85 mg/Kg p.o.,16%
same,Inhibition %,[1]; 127 mg/Kg p.o.,14%
same,LD50,[2],940 mg/kg
"CC=CCC(C(=O)O)c1ccc(-c2ccccc2)cc1 (single isomer, unassigned) [SCR 153, Triethanolamine salt of dextrogyre form]",ulcerogenic effect,[3],it is doubtful that above dose (50 mg) of SCR 153 could have any ulcerogenic effect
same,% inhibition,[4]; 12.5 mg/Kg p.o.,24%
same,% inhibition,[4]; 25 mg/Kg p.o.,29%
same,% inhibition,[4]; 50 mg/Kg p.o.,45%
same,% inhibition,[4]; 100 mg/Kg p.o.,53%
same,SH groups diminution in %,[5]; 20 mg/Kg p.o.,79%
same,SH groups diminution in %,[5]; 40 mg/Kg p.o.,48%
same,anti-inflammatory effect compared with 5 mg of indomethacin,[6]; 50 mg SCR 153 vs 5 mg indomethacin,near equal to the one obtained with 5 mg of indomethacin
same,% inhibition,[6],37%
same,Joint's diameter,"[7]; 20 mg/Kg p.o., 1 week, arthritis checks 0.48, 0.38",0.46
same,Joint's diameter,"[7]; 20 mg/Kg p.o., 2 weeks, arthritis checks 0.71, 0.75",0.61
same,Joint's diameter,"[7]; 20 mg/Kg p.o., 3 weeks, arthritis checks 0.81, 0.79",0.62
same,Joint's diameter,"[7]; 20 mg/Kg p.o., 4 weeks, arthritis checks 0.85, 0.89",0.73
same,Joint's diameter,"[7]; 40 mg/Kg p.o., 1 week, arthritis checks 0.48, 0.38",0.24
same,Joint's diameter,"[7]; 40 mg/Kg p.o., 2 weeks, arthritis checks 0.71, 0.75",0.39
same,Joint's diameter,"[7]; 40 mg/Kg p.o., 3 weeks, arthritis checks 0.81, 0.79",0.44
same,Joint's diameter,"[7]; 40 mg/Kg p.o., 4 weeks, arthritis checks 0.85, 0.89",0.52
same,Edema inhibition %,"[8]; 20 mg/Kg p.o., 2 days",40%
same,Edema inhibition %,"[8]; 20 mg/Kg p.o., 4 days",24%
same,Edema inhibition %,"[8]; 20 mg/Kg p.o., 8 days",52%
same,Edema inhibition %,"[8]; 20 mg/Kg p.o., 12 days",49%
same,Edema inhibition %,"[8]; 20 mg/Kg p.o., 16 days",30%
same,Edema inhibition %,"[8]; 20 mg/Kg p.o., 20 days",22%
same,Edema inhibition %,"[8]; 20 mg/Kg p.o., 24 days",10%
same,Edema inhibition %,"[8]; 40 mg/Kg p.o., 2 days",60%
same,Edema inhibition %,"[8]; 40 mg/Kg p.o., 4 days",40%
same,Edema inhibition %,"[8]; 40 mg/Kg p.o., 8 days",56%
same,Edema inhibition %,"[8]; 40 mg/Kg p.o., 12 days",61%
same,Edema inhibition %,"[8]; 40 mg/Kg p.o., 16 days",59%
same,Edema inhibition %,"[8]; 40 mg/Kg p.o., 20 days",56%
same,Edema inhibition %,"[8]; 40 mg/Kg p.o., 24 days",55%
same,E.S.R.,[9]; 20 mg/Kg p.o.,59
same,E.S.R.,[9]; 40 mg/Kg p.o.,32
"CC=CCC(C(=O)O)c1ccc(-c2ccccc2)cc1 (single isomer, unassigned; (+)) [SCR 152, (+) 2-(4-biphenylyl)-4-hexenoic acid]",% edema inhibition,"[10]; 50 mg/Kg p.o., 50 mg/kg",19%
same,% edema inhibition,"[10]; 100 mg/Kg p.o., 100 mg/kg",40%
same,% edema inhibition,"[10]; 200 mg/Kg p.o., 200 mg/kg",40%
same,% edema inhibition,"[11]; 50 mg/Kg p.o., 50 mg/kg",3%
same,% edema inhibition,"[11]; 100 mg/Kg p.o., 100 mg/kg",3%
same,% edema inhibition,"[11]; 200 mg/Kg p.o., 200 mg/kg",17%
same,ulcerogenic effect,[3],exhibits none ulcerogenic effect
same,% inhibition,[6],31%
same,anti-inflammatory effect (in words),[6]; dose of 50 mg,rather good anti-inflammatory effect
same,"Effect on the capillary permeability, .0. m.micron",[12],21.57 m.micron
same,"Effect on the capillary permeability, .0. m.micron",[13],8.00 m.micron
same,% edema inhibition,"[14]; 50 mg/Kg p.o., 50 mg/kg",54%
same,% edema inhibition,"[14]; 100 mg/Kg p.o., 100 mg/kg",52%
same,% edema inhibition,"[14]; 200 mg/Kg p.o., 200 mg/kg",66%
same,"Effect on the capillary permeability, .0. m.micron",[15],17.71 m.micron
same,% inhibition,[16],12%
same,% edema inhibition,"[17]; 50 mg/Kg p.o., 50 mg/kg",12%
same,% edema inhibition,"[17]; 100 mg/Kg p.o., 100 mg/kg",39%
same,% edema inhibition,"[17]; 200 mg/Kg p.o., 200 mg/kg",45%
same,% edema inhibition,[18]; 50 mg/Kg p.o.,13%
same,% edema inhibition,"[18]; 100 mg/Kg p.o., 100 mg/kg",25%
same,% edema inhibition,"[18]; 200 mg/Kg p.o., 200 mg/kg",17%
"CC=CCC(C(=O)O)c1ccc(-c2ccccc2)cc1 (single isomer, unassigned; (-)) [SCR 156, (-) 2-(4-biphenylyl)-4-hexenoic acid]",% edema inhibition,"[10]; 50 mg/Kg p.o., 50 mg/kg",32%
same,% edema inhibition,"[10]; 100 mg/Kg p.o., 100 mg/kg",26%
same,% edema inhibition,"[10]; 200 mg/Kg p.o., 200 mg/kg",28%
same,% edema inhibition,"[11]; 50 mg/Kg p.o., 50 mg/kg",0%
same,% edema inhibition,"[11]; 100 mg/Kg p.o., 100 mg/kg",13%
same,% edema inhibition,"[11]; 200 mg/Kg p.o., 200 mg/kg",0%
same,"Effect on the capillary permeability, .0. m.micron",[12],21.00 m.micron
same,"Effect on the capillary permeability, .0. m.micron",[13],13.58 m.micron
same,% edema inhibition,"[14]; 50 mg/Kg p.o., 50 mg/kg",9%
same,% edema inhibition,"[14]; 100 mg/Kg p.o., 100 mg/kg",31%
same,% edema inhibition,"[14]; 200 mg/Kg p.o., 200 mg/kg",23%
same,"Effect on the capillary permeability, .0. m.micron",[15],16.43 m.micron
same,% inhibition,[16],11%
same,% edema inhibition,"[17]; 50 mg/Kg p.o., 50 mg/kg",14%
same,% edema inhibition,"[17]; 100 mg/Kg p.o., 100 mg/kg",5%
same,% edema inhibition,"[17]; 200 mg/Kg p.o., 200 mg/kg",12%
same,% edema inhibition,[18]; 50 mg/Kg p.o.,13%
same,% edema inhibition,"[18]; 100 mg/Kg p.o., 100 mg/kg",5%
same,% edema inhibition,"[18]; 200 mg/Kg p.o., 200 mg/kg",7%
